Laboratory results reported in patent publication US20230191413A1, “METHOD AND APPARATUS FOR MEASURING PHASE TRANSITION CHARACTERISTICS OF MACROMOLECULES” (CAMBRIDGE ENTERPRISE LIMITED, priority 2020, published 2023).

Target: T1, FUS-GFP (FUS^G156E-EGFP) (Homo sapiens, UniProt P35637, G156E)
T1 sequence (P35637 1-526 G156E): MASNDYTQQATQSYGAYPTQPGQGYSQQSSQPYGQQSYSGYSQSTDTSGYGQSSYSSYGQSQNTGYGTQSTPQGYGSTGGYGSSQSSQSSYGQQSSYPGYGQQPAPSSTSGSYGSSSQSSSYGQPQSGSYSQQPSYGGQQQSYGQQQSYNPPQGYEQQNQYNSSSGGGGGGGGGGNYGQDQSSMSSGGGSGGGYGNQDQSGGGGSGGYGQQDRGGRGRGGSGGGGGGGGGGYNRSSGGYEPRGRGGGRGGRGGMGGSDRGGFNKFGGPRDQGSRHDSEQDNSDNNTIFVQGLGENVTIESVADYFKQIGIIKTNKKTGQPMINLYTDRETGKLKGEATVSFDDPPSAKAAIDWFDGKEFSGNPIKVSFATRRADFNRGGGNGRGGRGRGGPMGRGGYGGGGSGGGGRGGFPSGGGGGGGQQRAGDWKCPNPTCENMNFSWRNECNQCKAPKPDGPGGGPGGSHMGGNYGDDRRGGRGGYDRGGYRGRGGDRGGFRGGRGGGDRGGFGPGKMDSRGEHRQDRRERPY
Experiment: Droplet microfluidics phase diagram of FUS-GFP liquid-liquid phase separation as a function of protein and 1,6-hexanediol concentration
Type: biochemical
Conditions: micro-droplets, GFP fluorescence puncta; homogeneous phase at higher diol concentrations (FIG. 6, N=322 droplets)
Description: The method utilises droplet microfluidics to rapidly produce many micro-droplets, each of which can be considered a discrete microenvironment in which to study protein phase separation. By altering the input solution conditions, a broad range of phase-separation environments are produced rapidly in order to map LLPS behaviour over a wide region of chemical space. […] Using the microfluidic platform, the phase boundary between phase-separated and homogeneous FUS solution is determined, as modulated by the small molecule 1,6-hexanediol, which is known to strongly interfere with LLPS behaviour. […]
Alexa647 dye (10 μM) was mixed with the 1,6-hexanediol solution, to provide a fluorescent marker for the intra-droplet 1,6-hexanediol concentration. […] Samples were collected for three minutes before undergoing fluorescence imaging analysis.
The concentration of FUS^G156E-EGFP and 1,6-hexanediol present in each droplet was determined by integration of volume-normalised EGFP (green fluorescent protein) and Alexa647 fluorescence, respectively. Phase separation was observed by the presence of discrete puncta in GFP fluorescence, whereas homogeneous droplet fluorescence indicated the absence of phase separation (FIG. 5). […]

In the case of `OCCCCCCO` [1,6-hexanediol], the “concentration of 1,6-hexanediol at which phase separation of FUS-GFP was observable” value is reported as under 1 % v/v.
